# Test system: human maximum recommended daily dose, FDA database
# Test: DSSTox (FDAMDD) FDA Maximum (Recommended) Daily Dose Database
# Settings: hits give low values
# How it was run: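 MRDD values come from clinical trials with daily oral dosing, usually for 3–12 months, for the average adult, in mg/day converted to mg/kg-bw/day assuming 60 kg. Antineoplastic mg/m2 doses are divided by 37. Activity score maps log10(1/MRDD mmol) onto 1–100.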
# [1] = TherapeuticCategory: antihypertensive
# [2] = TherapeuticCategory: antibacterial
# [3] = TherapeuticCategory: choleretic
# [4] = TherapeuticCategory: antineoplastic
# [5] = TherapeuticCategory: antihyperlipoproteinemic
# [6] = TherapeuticCategory: diagnostic aid
# [7] = TherapeuticCategory: antidepressant
# [8] = TherapeuticCategory: progestogen
smiles,measurement,setting,value
CCCCC(=O)N(Cc1ccc(-c2ccccc2-c2nn[nH]n2)cc1)[C@@H](C(=O)O)C(C)C,maximum recommended daily dose (mmol/kg-bw/day),[1],0.0122
O=C(NCC1CCCCN1)c1cc(OCC(F)(F)F)ccc1OCC(F)(F)F (stereo not given),maximum recommended daily dose (mmol/kg-bw/day),TherapeuticCategory: antiarrhythmic,0.0121
CC1(C)N=C(N)N=C(N)N1c1ccc(Cl)cc1,maximum recommended daily dose (mmol/kg-bw/day),TherapeuticCategory: antimalarial,0.00132
CN(C)CCOC(C)(c1ccccc1)c1ccc(Cl)cc1 (stereo not given),maximum recommended daily dose (mmol/kg-bw/day),TherapeuticCategory: antiamebic,0.123
CCCC(CCC)C(N)=O,maximum recommended daily dose (mmol/kg-bw/day),TherapeuticCategory: anticonvulsant,0.232
NC(N)=NCCN1CCCCCCC1,maximum recommended daily dose (mmol/kg-bw/day),[1],0.0042
OCCN1CCN(CCCN2c3ccccc3C=Cc3ccccc32)CC1,maximum recommended daily dose (mmol/kg-bw/day),"TherapeuticCategory: antidepressant, antipsychotic",0.0138
C[C@](N)(Cc1ccc(O)c(O)c1)C(=O)O,maximum recommended daily dose (mmol/kg-bw/day),[1],0.158
CO[C@@H]1[C@@H](OC(N)=O)[C@@H](O)[C@H](Oc2ccc3c(O)c(NC(=O)c4ccc(O)c(CC=C(C)C)c4)c(=O)oc3c2C)OC1(C)C,maximum recommended daily dose (mmol/kg-bw/day),[2],0.0394
CCC(=O)O[C@H]1[C@H](O[C@@H]2[C@@H](C)[C@H](O[C@H]3C[C@@](C)(OC)[C@@H](O)[C@H](C)O3)[C@@H](C)C(=O)O[C@H](CC)[C@@](C)(O)[C@H](O)[C@@H](C)C(=O)[C@H](C)C[C@@]2(C)O)O[C@H](C)C[C@@H]1N(C)C,maximum recommended daily dose (mmol/kg-bw/day),[2],0.0844
O=C(O)C1CSCN1 (stereo not given),maximum recommended daily dose (mmol/kg-bw/day),[3],0.0751
CCC(c1ccccc1)c1c(O)c2ccccc2oc1=O (stereo not given),maximum recommended daily dose (mmol/kg-bw/day),TherapeuticCategory: anticoagulant,0.00143
Cc1cc2c(s1)Nc1ccccc1N=C2N1CCN(C)CC1,maximum recommended daily dose (mmol/kg-bw/day),TherapeuticCategory: antipsychotic,0.0008
OC[C@@H](O)[C@@H](O)[C@H](O)[C@H](O)CO,maximum recommended daily dose (mmol/kg-bw/day),"TherapeuticCategory: diuretic, diagnostic aid",5.48
O=C(O)CCCc1ccc(N(CCCl)CCCl)cc1,maximum recommended daily dose (mmol/kg-bw/day),[4],0.000657
C[C@H]1CCC[C@H](O)CCCCCc2cc(O)cc(O)c2C(=O)O1,maximum recommended daily dose (mmol/kg-bw/day),TherapeuticCategory: anabolic,1.55e-06
CCC[C@@H]1C[C@@H](C(=O)N[C@@H]([C@H]2O[C@H](SC)[C@H](O)[C@@H](O)[C@H]2O)[C@H](C)Cl)N(C)C1,maximum recommended daily dose (mmol/kg-bw/day),[2],0.0706
NC(CO)C(=O)NNCc1ccc(O)c(O)c1O (stereo not given),maximum recommended daily dose (mmol/kg-bw/day),TherapeuticCategory: antiparkinsonian,0.0129
CC(C)n1c(/C=C/[C@@H](O)C[C@@H](O)CC(=O)O)c(-c2ccc(F)cc2)c2ccccc21,maximum recommended daily dose (mmol/kg-bw/day),[5],0.00162
COc1cc(Cc2cnc(N)nc2N)cc(OC)c1OC,maximum recommended daily dose (mmol/kg-bw/day),[2],0.0184
NCCc1cnc[nH]1,maximum recommended daily dose (mmol/kg-bw/day),TherapeuticCategory: gastrointestinal,0.00013
CO[C@H](C(=O)[C@@H](O)[C@@H](C)O)C1Cc2cc3cc(O[C@H]4C[C@@H](O[C@H]5C[C@@H](O)[C@H](O)[C@@H](C)O5)[C@@H](O)[C@@H](C)O4)c(C)c(O)c3c(O)c2C(=O)[C@H]1O[C@H]1C[C@@H](O[C@H]2C[C@@H](O[C@H]3C[C@](C)(O)[C@H](O)[C@@H](C)O3)[C@H](O)[C@@H](C)O2)[C@H](O)[C@@H](C)O1 (stereo not given in full),maximum recommended daily dose (mmol/kg-bw/day),[4],2.76e-05
CCn1cc(C(=O)O)c(=O)c2ccc(C)nc21,maximum recommended daily dose (mmol/kg-bw/day),[2],0.287
OC1OC[C@@H](O)[C@H](O)[C@H]1O (stereo not given in full),maximum recommended daily dose (mmol/kg-bw/day),TherapeuticCategory: intestinal function diagnostic aid,2.78
O=C(O)CN(CCN(CC(=O)O)CC(=O)O)CCN(CC(=O)O)CC(=O)O,maximum recommended daily dose (mmol/kg-bw/day),TherapeuticCategory: chelating agent,0.0425
Cc1ccccc1OCC(O)CO (stereo not given),maximum recommended daily dose (mmol/kg-bw/day),TherapeuticCategory: skeletal muscle relaxant,0.274
CC(C)(C(=O)c1cccnc1)c1cccnc1,maximum recommended daily dose (mmol/kg-bw/day),[6],0.331
O=C(O)C1=C(CSc2nnnn2CS(=O)(=O)O)CS[C@@H]2[C@H](NC(=O)[C@H](O)c3ccccc3)C(=O)N12,maximum recommended daily dose (mmol/kg-bw/day),[2],0.0308
CN(C)CCOC(c1ccccc1)c1ccccc1,maximum recommended daily dose (mmol/kg-bw/day),TherapeuticCategory: antihistaminic,0.00326
Cc1cc2cc3c(C)cc(=O)oc3c(C)c2o1,maximum recommended daily dose (mmol/kg-bw/day),TherapeuticCategory: pigmentation agent,0.000732
CNCCC(Oc1ccc(C(F)(F)F)cc1)c1ccccc1 (stereo not given),maximum recommended daily dose (mmol/kg-bw/day),[7],0.0043
CCOC(=O)[C@H](CCc1ccccc1)N[C@@H](C)C(=O)N1[C@H](C(=O)O)C[C@@H]2CCC[C@@H]21,maximum recommended daily dose (mmol/kg-bw/day),[1],0.000799
C[C@H](CCC(=O)O)[C@H]1CC[C@H]2[C@@H]3[C@@H](O)C[C@@H]4C[C@H](O)CC[C@]4(C)[C@H]3CC[C@]12C,maximum recommended daily dose (mmol/kg-bw/day),TherapeuticCategory: anticholelithogenic,0.0255
Cc1c(C(C)C)c(=O)n(-c2ccccc2)n1C,maximum recommended daily dose (mmol/kg-bw/day),"TherapeuticCategory: analgesic, antipyretic, antiphlogistic",0.13
CC(C)(C)CC(=O)OCC(=O)[C@@]1(O)CC[C@H]2[C@@H]3CCC4=CC(=O)C=C[C@]4(C)[C@H]3[C@@H](O)C[C@@]21C,maximum recommended daily dose (mmol/kg-bw/day),TherapeuticCategory: glucocorticoid,0.00726
CC1(C)S[C@@H]2[C@H](NC(=O)[C@H](N)c3ccccc3)C(=O)N2[C@H]1C(=O)O,maximum recommended daily dose (mmol/kg-bw/day),[2],0.167
O=C(OCCN1CCCCC1)C(O)(c1ccccc1)c1ccccc1,maximum recommended daily dose (mmol/kg-bw/day),"TherapeuticCategory: anticholinergic, antispasmodic",0.00392
CCCCC(=O)OCC(=O)[C@@]1(O)[C@H](C)C[C@H]2[C@@H]3CCC4=CC(=O)C=C[C@]4(C)[C@@]3(F)[C@@H](O)C[C@@]21C,maximum recommended daily dose (mmol/kg-bw/day),"TherapeuticCategory: glucocorticoid, anti inflammatory",0.000315
Cc1ccc(S(=O)(=O)NC(=O)NN2CCCCCC2)cc1,maximum recommended daily dose (mmol/kg-bw/day),TherapeuticCategory: antidiabetic,0.0536
CCC(=O)O[C@@](Cc1ccccc1)(c1ccccc1)[C@@H](C)CN(C)C,maximum recommended daily dose (mmol/kg-bw/day),TherapeuticCategory: antitussive,0.00492
O=C1C(O)N=C(c2ccccc2F)c2cc(Cl)ccc2N1CCO (stereo not given),maximum recommended daily dose (mmol/kg-bw/day),"TherapeuticCategory: sedative, hypnotic",0.000955
C[C@@H]1[C@H](O)[C@@H](C)/C=C/C=C/C=C/C=C/C=C/C=C/C=C/[C@H](O[C@@H]2O[C@H](C)[C@@H](O)[C@H](N)[C@@H]2O)C[C@@H]2O[C@](O)(C[C@@H](O)C[C@@H](O)[C@H](O)CC[C@@H](O)C[C@@H](O)CC(=O)O[C@H]1C)C[C@H](O)[C@H]2C(=O)O,maximum recommended daily dose (mmol/kg-bw/day),TherapeuticCategory: antifungal,0.00162
CC1C(c2ccccc2)OCCN1C (stereo not given),maximum recommended daily dose (mmol/kg-bw/day),TherapeuticCategory: anorexic,0.0183
CCOC(=O)c1c(N)sc2c1CCN(Cc1ccccc1)C2,maximum recommended daily dose (mmol/kg-bw/day),"TherapeuticCategory: analgesic, antipyretic, anti inflammatory",0.0158
CCCCC(C)(O)C/C=C/[C@H]1[C@H](O)CC(=O)[C@@H]1CCCCCCC(=O)OC (stereo not given in full),maximum recommended daily dose (mmol/kg-bw/day),TherapeuticCategory: antiulcerative,3.48e-05
OCCN1CCN(CCCN2c3ccccc3Sc3ccc(Cl)cc32)CC1,maximum recommended daily dose (mmol/kg-bw/day),"TherapeuticCategory: antipsychotic, dopamine receptor antagonist",0.00099
CNC1(C)C2CCC(C2)C1(C)C (stereo not given),maximum recommended daily dose (mmol/kg-bw/day),[1],0.00249
COCCc1ccc(OCC(O)CNC(C)C)cc1 (stereo not given),maximum recommended daily dose (mmol/kg-bw/day),"TherapeuticCategory: antihypertensive, antianginal",0.0249
NCC(=O)O,maximum recommended daily dose (mmol/kg-bw/day),TherapeuticCategory: none,1.33
CC(=O)c1ccc2c(c1)N(CCCN(C)C)c1ccccc1S2,maximum recommended daily dose (mmol/kg-bw/day),TherapeuticCategory: tranquilizer,0.000459
CCN(CC)C(=O)[C@@H]1C=C2c3cccc4[nH]cc(c34)C[C@H]2N(C)C1,maximum recommended daily dose (mmol/kg-bw/day),"TherapeuticCategory: antipsychotic, seratonin receptor antagonist",3.86e-05
Cc1ccc(C)c(OCCCC(C)(C)C(=O)O)c1,maximum recommended daily dose (mmol/kg-bw/day),[5],0.0799
Cn1c(=O)c2c(ncn2CC2OCCO2)n(C)c1=O,maximum recommended daily dose (mmol/kg-bw/day),TherapeuticCategory: bronchodilator,0.05
C#C[C@]1(O)CC[C@H]2[C@@H]3CCC4=C[C@@H](O)CC[C@@H]4[C@H]3CC[C@@]21C,maximum recommended daily dose (mmol/kg-bw/day),[8],5.56e-05
CC(=O)NCc1c(I)c(NC(C)=O)c(I)c(C(=O)O)c1I,maximum recommended daily dose (mmol/kg-bw/day),[6],0.159
CC(=O)[C@H]1CC[C@H]2[C@@H]3C=CC4=CC(=O)CC[C@@]4(C)[C@@H]3CC[C@]12C,maximum recommended daily dose (mmol/kg-bw/day),[8],0.0016
CCO,maximum recommended daily dose (mmol/kg-bw/day),TherapeuticCategory: topical antiseptic,2.17
C=CCN1C[C@H](C(=O)N(CCCN(C)C)C(=O)NCC)C[C@@H]2c3cccc4[nH]cc(c34)C[C@H]21,maximum recommended daily dose (mmol/kg-bw/day),"TherapeuticCategory: antidyskinetic, prolactin inhibitor, antiparkinsonian, dopamine receptor antagonist",4.43e-05
CC[C@]1(O)CC[C@H]2[C@@H]3CCC4=CCCC[C@@H]4[C@H]3CC[C@@]21C,maximum recommended daily dose (mmol/kg-bw/day),TherapeuticCategory: anabolic,0.000231
CC(=O)Nc1ccc(O)cc1,maximum recommended daily dose (mmol/kg-bw/day),"TherapeuticCategory: analgesic, antipyretic",0.331
COc1cc([C@@H]2Oc3cc([C@H]4Oc5cc(O)cc(O)c5C(=O)[C@@H]4O)ccc3O[C@H]2CO)ccc1O,maximum recommended daily dose (mmol/kg-bw/day),TherapeuticCategory: treatment of liver disfunction,0.0145
CC1(O)CCC(C(C)(C)O)CC1 (stereo not given),maximum recommended daily dose (mmol/kg-bw/day),TherapeuticCategory: cis form hydrate as expectorant,0.116
O=C(O)CCC(=O)c1ccc(C2CCCCC2)c(Cl)c1,maximum recommended daily dose (mmol/kg-bw/day),TherapeuticCategory: anti inflammatory,0.0678
O=c1cc[nH]c(=S)[nH]1,maximum recommended daily dose (mmol/kg-bw/day),TherapeuticCategory: thyroid depressant,0.026
C[C@H](CCC(=O)O)[C@H]1CC[C@H]2[C@@H]3C(=O)C[C@@H]4CC(=O)CC[C@]4(C)[C@H]3CC(=O)[C@]12C,maximum recommended daily dose (mmol/kg-bw/day),[3],0.0932
CC(=O)[C@]1(O)Cc2c(O)c3c(c(O)c2[C@@H](O[C@H]2C[C@H](N)[C@H](O)[C@H](C)O2)C1)C(=O)c1c(O)cccc1C3=O,maximum recommended daily dose (mmol/kg-bw/day),[4],0.00132
COC(=O)C(c1ccccc1)C1CCCCN1 (stereo not given),maximum recommended daily dose (mmol/kg-bw/day),TherapeuticCategory: CNS stimulant,0.00429
CCc1cc(C(N)=S)ccn1,maximum recommended daily dose (mmol/kg-bw/day),[2],0.1
CCOC(=O)Oc1c(OC)cc(C(=O)O[C@@H]2C[C@@H]3CN4CCc5c([nH]c6cc(OC)ccc56)[C@H]4C[C@@H]3[C@H](C(=O)OC)[C@H]2OC)cc1OC,maximum recommended daily dose (mmol/kg-bw/day),[1],7.5e-05
Fc1ccc([C@@H]2CCNC[C@H]2COc2ccc3c(c2)OCO3)cc1,maximum recommended daily dose (mmol/kg-bw/day),[7],0.00253

# — PubChem BioAssay AID1195 (EPA DSSTox, 2008)
